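The compound was tested at five concentrations on cells cultured in 96-well plates, with a 48-hour exposure period. Here, GI50 denotes the concentration required for 50% inhibition of growth. TGI denotes the concentration required for complete inhibition of growth.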
Legend:
Experiment in all cases: NCI-60 cell line screen, 48 h; in the data active means GI50 below about 0.43 µM; inactive means the rest
RPMI-8226 leukemia = system: RPMI-8226 leukemia
DU-145 prostate = system: DU-145 prostate
OVCAR-4 ovarian = system: OVCAR-4 ovarian
NCI-H226 lung = system: NCI-H226 lung
CCRF-CEM leukemia = system: CCRF-CEM leukemia
KM12 colon = system: KM12 colon
OVCAR-3 ovarian = system: OVCAR-3 ovarian
PC-3 prostate = system: PC-3 prostate
HT29 colon = system: HT29 colon
UACC-257 melanoma = system: UACC-257 melanoma
K-562 leukemia = system: K-562 leukemia
OVCAR-8 ovarian = system: OVCAR-8 ovarian
SK-MEL-28 melanoma = system: SK-MEL-28 melanoma
NCI-H522 lung = system: NCI-H522 lung
MDA-MB-231 breast = system: MDA-MB-231 breast
A549 NSCLC = system: A549 NSCLC
RXF 393 renal = system: RXF 393 renal
CAKI-1 renal = system: CAKI-1 renal
HS 578T breast = system: HS 578T breast
MOLT-4 leukemia = system: MOLT-4 leukemia
SW-620 colon = system: SW-620 colon
SR leukemia = system: SR leukemia
NCI-H460 lung = system: NCI-H460 lung
SN12C renal = system: SN12C renal
HCC-2998 colon = system: HCC-2998 colon
M14 melanoma = system: M14 melanoma
HL-60(TB) leukemia = system: HL-60(TB) leukemia
SNB-19 CNS = system: SNB-19 CNS
IGROV1 ovarian = system: IGROV1 ovarian
HCT-116 colon = system: HCT-116 colon
U251 CNS = system: U251 CNS
SF-268 CNS = system: SF-268 CNS
786-0 renal = system: 786-0 renal
EKVX NSCLC = system: EKVX NSCLC
SK-MEL-5 melanoma = system: SK-MEL-5 melanoma
UACC-62 melanoma = system: UACC-62 melanoma
HOP-62 NSCLC = system: HOP-62 NSCLC
A498 renal = system: A498 renal
MALME-3M melanoma = system: MALME-3M melanoma
TK-10 renal = system: TK-10 renal
MCF7 breast = system: MCF7 breast
HCT-15 colon = system: HCT-15 colon
UO-31 renal = system: UO-31 renal
SNB-75 CNS = system: SNB-75 CNS
T-47D breast = system: T-47D breast
LOX IMVI melanoma = system: LOX IMVI melanoma
COLO 205 colon = system: COLO 205 colon
SK-MEL-2 melanoma = system: SK-MEL-2 melanoma
SK-OV-3 ovarian = system: SK-OV-3 ovarian
ACHN renal = system: ACHN renal
OVCAR-5 ovarian = system: OVCAR-5 ovarian
HOP-92 NSCLC = system: HOP-92 NSCLC
NCI/ADR-RES ovarian = system: NCI/ADR-RES ovarian
NCI-H23 lung = system: NCI-H23 lung
SF-539 CNS = system: SF-539 CNS
SF-295 CNS = system: SF-295 CNS
MDA-MB-435 = system: MDA-MB-435
BT-549 breast = system: BT-549 breast

O=S1CCN(Cc2ccc(-c3ccc4ncnc(Nc5ccc(OCc6ccccc6)c(Cl)c5)c4c3)o2)CC1
> 25 µM: TGI (RPMI-8226 leukemia) | TGI (DU-145 prostate) | TGI (OVCAR-4 ovarian) | TGI (NCI-H226 lung) | TGI (CCRF-CEM leukemia) | TGI (KM12 colon) | TGI (OVCAR-3 ovarian) | TGI (PC-3 prostate) | TGI (UACC-257 melanoma) | TGI (K-562 leukemia) | TGI (OVCAR-8 ovarian) | TGI (SK-MEL-28 melanoma) | TGI (NCI-H522 lung) | TGI (MDA-MB-231 breast) | TGI (A549 NSCLC) | TGI (RXF 393 renal) | TGI (CAKI-1 renal) | TGI (HS 578T breast) | TGI (MOLT-4 leukemia) | TGI (SW-620 colon) | TGI (SR leukemia) | TGI (NCI-H460 lung) | TGI (SN12C renal) | TGI (M14 melanoma) | TGI (SNB-19 CNS) | TGI (IGROV1 ovarian) | TGI (HCT-116 colon) | TGI (U251 CNS) | TGI (SF-268 CNS) | TGI (786-0 renal) | TGI (HOP-62 NSCLC) | TGI (MALME-3M melanoma) | TGI (TK-10 renal) | TGI (MCF7 breast) | TGI (HCT-15 colon) | TGI (UO-31 renal) | TGI (SNB-75 CNS) | TGI (T-47D breast) | TGI (COLO 205 colon) | TGI (SK-OV-3 ovarian) | TGI (ACHN renal) | TGI (OVCAR-5 ovarian) | TGI (NCI/ADR-RES ovarian) | TGI (NCI-H23 lung) | TGI (SF-539 CNS) | TGI (SF-295 CNS) | TGI (MDA-MB-435)
> 16.9 µM: TGI (LOX IMVI melanoma)
> 15.7 µM: TGI (SK-MEL-5 melanoma)
23.4 µM: TGI (HCC-2998 colon)
> 20.5 µM: TGI (BT-549 breast)
> 20.7 µM: TGI (HL-60(TB) leukemia)
24.3 µM: TGI (A498 renal)
16.7 µM: TGI (SK-MEL-2 melanoma)
active: GI50 (EKVX NSCLC) 0.112 µM | GI50 (TK-10 renal) 0.116 µM | GI50 (SK-OV-3 ovarian) 0.0917 µM
> 18.8 µM: TGI (HT29 colon)
> 21.2 µM: TGI (HOP-92 NSCLC)
> 23.4 µM: TGI (UACC-62 melanoma)
inactive: GI50 (RPMI-8226 leukemia) 12.4 µM | GI50 (DU-145 prostate) 7.52 µM | GI50 (OVCAR-4 ovarian) 13.5 µM | GI50 (NCI-H226 lung) > 16.5 µM | GI50 (CCRF-CEM leukemia) 9.07 µM | GI50 (KM12 colon) 9.22 µM | GI50 (OVCAR-3 ovarian) 8.08 µM | GI50 (PC-3 prostate) 11.8 µM | GI50 (HT29 colon) 6.9 µM | GI50 (UACC-257 melanoma) 8.55 µM | GI50 (K-562 leukemia) 10.1 µM | GI50 (OVCAR-8 ovarian) 11.7 µM | GI50 (SK-MEL-28 melanoma) 14 µM | GI50 (NCI-H522 lung) 3.68 µM | GI50 (MDA-MB-231 breast) 14.9 µM | GI50 (A549 NSCLC) 8.02 µM | GI50 (RXF 393 renal) > 15.3 µM | GI50 (CAKI-1 renal) 0.635 µM | GI50 (HS 578T breast) > 21.6 µM | GI50 (MOLT-4 leukemia) 9.06 µM | GI50 (SW-620 colon) 8.63 µM | GI50 (SR leukemia) 7.57 µM | GI50 (NCI-H460 lung) 10.2 µM | GI50 (SN12C renal) 14.8 µM | GI50 (HCC-2998 colon) 7.19 µM | GI50 (M14 melanoma) 10 µM | GI50 (HL-60(TB) leukemia) 10.6 µM | GI50 (SNB-19 CNS) > 25 µM | GI50 (IGROV1 ovarian) 0.561 µM | GI50 (HCT-116 colon) 11.3 µM | GI50 (U251 CNS) 14.9 µM | GI50 (SF-268 CNS) > 22.3 µM | GI50 (786-0 renal) 10.7 µM | GI50 (SK-MEL-5 melanoma) 7.9 µM | GI50 (UACC-62 melanoma) 10.7 µM | GI50 (HOP-62 NSCLC) > 25 µM | GI50 (A498 renal) 5.82 µM | GI50 (MALME-3M melanoma) 10.1 µM | GI50 (MCF7 breast) > 15.2 µM | GI50 (HCT-15 colon) 7.78 µM | GI50 (UO-31 renal) 6.32 µM | GI50 (SNB-75 CNS) > 16.6 µM | GI50 (T-47D breast) 5.72 µM | GI50 (LOX IMVI melanoma) 8.51 µM | GI50 (COLO 205 colon) 11.7 µM | GI50 (SK-MEL-2 melanoma) 7.46 µM | GI50 (ACHN renal) 0.656 µM | GI50 (OVCAR-5 ovarian) 12.1 µM | GI50 (HOP-92 NSCLC) 4.91 µM | GI50 (NCI/ADR-RES ovarian) 8.08 µM | GI50 (NCI-H23 lung) 13.3 µM | GI50 (SF-539 CNS) > 15.3 µM | GI50 (SF-295 CNS) 9.76 µM | GI50 (MDA-MB-435) 8.95 µM | GI50 (BT-549 breast) 9.62 µM
> 19.9 µM: TGI (EKVX NSCLC)
